This is an account of results in US6677362B1, “Solid pharmaceutical dispersions” (Warner-Lambert Company, priority 1991, dated 2004).

Data set [1] in a line: solubility of the drug in water / aqueous media. It counts as physicochemical.
Data set [2] is described as follows: in vivo bioavailability studies involving animal models. As to conditions: administered in its original crystalline form.

In the case of `Cc1c(C)c2c(c(C)c1O)CCC(C)(COc1ccc(CC3SC(=O)NC3=O)cc1)O2` (single isomer, unassigned; (+)) [Romglizone, (+)-5-[4-(6-hydroxy-2,5,7,8-tetramethylchroman-2-ylmethoxy)-benzyl]-2,4-thiazolidinedione], the “change of solubility with pH” value in data set [1] (as the pH of the aqueous media increases) is on record as “slightly increases”. For the same compound, the solubility in water entry in data set [1] (water) is given as “practically insoluble”. Besides, the bioavailability result in data set [2] was “poor bioavailability”.
